Test results published in patent US8278348B2, “Chondropsin-class antitumor V-atpase inhibitor compounds, compositions and methods of use thereof” (priority 2002, dated 2012).

How the values were obtained:
Experiment in all cases: Two day XTT cytotoxicity assay
Assay type in all cases: cell-based
[1] = system: A549; conditions: Homo sapiens, Breast
Source text: (§1) This example describes the cytoxicity of poecillastrin A (1), isolated in Example 1. The cytotoxicity assay, details of which have been described previously (Bokesch et al., J. Nat. Prod. 1999, 62, 633-635), utilized melanoma (LOX), breast […], ovarian (OVCAR-3), and non-small cell lung (SNB-19) human tumor cell lines and IC-2^WT and IC-2^V814 murine mast cell lines (Hashimoto et al., Am. J. Pathol. 1996, 148, 189-200).
(§2) The in vitro 10 cell-line bioassay was a two day bioassay. Cells were grown in RPMI-1640 (Rosweli Park Memorial Institute) without L-glutamine, supplemented with 10% fetal bovine serum, 5.0 mL of a 200 mM glutamine stock, and 0.5 mL of gentamicin and plated out in T-162 cm^2 flasks. Once the cells were confluent, they were harvested and plated in 96-well microtiter flat-bottom plates at a seeding density of 50-10,000 cells per well, to yield optical density readings in the range of 1-2.0, and incubated for 1 h in a 37° C., 5% CO2 incubator. After the 1 h incubation, the cells were then introduced to the sample of poecillastrin A, via a Beckman Biomek Workstation-1000. The Biomek-1000 performed seven serial dilutions in a 96-well round-bottom plate and then transferred aliquots of 100 μL to the assay plate. The plate was then returned to the incubator for […]. After the two day incubation, the cells were exposed to tetrazolium salt, 2,3-bis[2-methoxy-4-nitro-5-sulfophenyl]-2H-tetrazolium-5-carboxanilide (XTT), for a 4 h incubation in a 37° C. incubator, where viable cells reduced the tetrazolium salt to a colored formazan product. Once the incubation was complete, the plates were read in a dual wavelength mode at 450 nm, with a 650 nm reference, using a SpectraMAX 250 (Molecular Devices) plate reader. Resulting data for each cell line are found in Table 3.

[2] = system: IC-2 V814; conditions: Mus musculus, Murine mast cell
Source text: as §1, §2

[3] = system: IC-2 WT; conditions: Mus musculus, Murine mast cell
Source text: as §1, §2

[4] = system: LOX; conditions: Homo sapiens, Melanoma
Source text: as §1, §2

[5] = system: OVCAR-3; conditions: Homo sapiens, Ovarian
Source text: as §1, §2

[6] = system: SNB-19; conditions: Homo sapiens, Non-small cell lung
Source text: as §1, §2

In the case of `COC1/C=C/C=C/CC/C=C/C=C/C(=O)NC(C(O)C(=O)O)C(=O)OC(C(C)C(O)C(NC(=O)C(C)C(O)CCC(C)C(O)/C(C)=C/C(C)(C)C(O)C(CC(C)C)NC(=O)/C=C/C(C)(C)C(=O)C(C)C(O)C(C)C)C(C)O)C/C=C(\C)C(O)C(C)/C=C(\C)C(O)C(C)C(O)CC2CC(C)CC1O2` (stereo not drawn) [Poecillastrin A, poecillastrin A], the IC50 [1] is reported as greater than 10000 nM, the IC50 [2] is reported as 546 nM and the IC50 [3] is reported as 206 nM. The IC50 [4] was 14 nM, the IC50 [5] was 28 nM and the IC50 [6] was greater than 10000 nM.
